According to patent publication EP0973746B1, “SUBSTITUTED 3-CYANO QUINOLINES” (Wyeth Holdings Corporation, priority 1997, dated 1998):
Converted amounts (≈) assume the structure as drawn. Where two headings read alike, the source gives them in different places.

Experiments:
[1] = molecular target: recombinant human MEK 1 (MAPKK) and recombinant human ERK2 (MAPK); assay: Mitogen Activated Protein Kinase (MAPK) assay, two component coupled MEK 1 / ERK2; format: biochemical; conditions: separate entries for the same compound = evaluated more than one time;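 also: MEK 1-activated ERK2 phosphorylates MBP or Myc peptide with 33P-ATP, filter capture and scintillation counting, inhibitor preincubated with ERK2 30 min at 0 °C, inhibition relative to uninhibited control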
[2] = molecular target: Epithelial Cell Kinase (ECK) (Homo sapiens, UniProt P29317); assay: biochemical
Protocol: In this standard pharmacological test procedure, a biotinylated peptide substrate is first immobilized on neutravidin-coated microtiter plates. The test drug, the Epithelial Cell Kinase (ECK), Mg^++, sodium vanadate (a protein tyrosine phosphatase inhibitor), and an appropriate buffer to maintain pH (7.2) are then added to the immobilized substrate-containing microtiter wells. ATP is then added to initiate phosphorylation. After incubation, the assay plates are washed with a suitable buffer leaving behind phosphorylated peptide which is exposed to horse radish peroxidase (HRP)-conjugated anti-phosphotyrosine monoclonal antibody. The antibody-treated plates are washed again and the HRP activity in individual wells is quantified as a reflection of degree of substrate phosphorylation.

[3] = system: SKBR3; assay: Inhibition of cancer cell growth as measured by cell number, SKBR3; format: cell-based, human; conditions: Table 8; for IC50: Homo sapiens;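 as to all read-outs here: SK-BR-3 cells were selected as a line overexpressing HER2/neu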
Source text: (§1) The cell lines were chosen since they overexpressed epidermal growth factor receptor (EGFR) (i.e. A431) or HER2/neu (SKBR3), or had little to no expression of the these receptors (SW620, LOX, MCF7).

[4] = system: LOX; assay: Inhibition of cancer cell growth as measured by cell number, LOX; format: cell-based, human; conditions: Homo sapiens, LOX, 48 h, read-out: IC50 LOX, cell number, Sulforhodamine B, 48 hours exposure; Table 8;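 also: LOX cells served as a line with low or absent EGFR and HER2/neu expression, in contrast to receptor-overexpressing lines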
Source text: as §1

[5] = molecular target: T1, Kinase insert Domain containing Receptor (KDR: the catalytic domain of the VEGF receptor) (Homo sapiens, UniProt P35968); assay: Inhibition of Kinase insert Domain containing Receptor (KDR); format: biochemical; conditions: pH 7.2; radioactive format; read-out: KDR IC50 (converted);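 also: KDR phosphorylating a Glu:Tyr 4:1 copolymer with P32- or P33-labelled ATP, Mg++ and vanadate, read as acid-insoluble radiolabel, compared with compound-free reaction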
T1 construct: KDR: the catalytic domain of the VEGF receptor

[6] = system: A431; assay: Inhibition of cancer cell growth as measured by cell number, A431; format: cell-based, human; conditions: Homo sapiens, A-431, 48 h, Table 8;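 also: human A431 line, picked because it overexpresses epidermal growth factor receptor (EGFR)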
Source text: as §1

[7] = molecular target: T2, His-tagged cytoplasmic domain of EGFR (Homo sapiens, UniProt P00533); assay: Inhibition of Epidermal Growth Factor Receptor Kinase (EGF-R) using recombinant enzyme; format: biochemical; conditions: recombinant enzyme; RR-SRC peptide; average of the number of tests; read-out: IC50;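 also: radiometric kinase assay measuring radiolabeled phosphate transfer from ATP onto the peptide tyrosine by scintillation counting, control is reaction without compound, background subtracted, IC50 from dose-response curve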
T2 construct: containing the EGFR cDNA encoding amino acids 645 - 1186 preceded by Met-Ala-(His)6; made in house; host or cells: Sf9 cells, recombinant baculovirus vHcEGFR52

[8] = system: SW620; assay: Inhibition of cancer cell growth as measured by cell number, SW620; format: cell-based, human; conditions: for IC50: Homo sapiens, SW-620, 48 h;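 as to all read-outs here: SW620 was included as a cell line with little or no EGFR or HER2/neu expression, in contrast to receptor-overexpressing lines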
Source text: as §1

[9] = system: MCF7; assay: Inhibition of cancer cell growth as measured by cell number, MCF7; format: cell-based, human; conditions: Homo sapiens, MCF7, 48 h, read-out: IC50 MCF7, cell number, Sulforhodamine B, 48 hours exposure; Table 8;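 also: MCF7 was included as a line with little or no EGFR or HER2/neu expression, in contrast to the receptor-overexpressing lines of the panel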
Source text: as §1

[10] = system: human epidermoid tumors (A431); assay: In vivo inhibition of the growth of human epidermoid tumors (A431); conditions: Table 11; for S/T = No. Survivors/No. Treated: Day +28 post tumor staging
Protocol: Representative compounds of this invention (listed below) were evaluated in an in vivo standard pharmacological test procedure which measured its ability to inhibit the growth of human epidermoid tumors. […] BALB/c nu/nu female mice (Charles River, Wilmington, MA) were used in this in vivo standard pharmacological test procedure. A unit of 5 X 10^6 cells were injected SC into mice. When tumors attained a mass of between 100 and 150 mg, the mice were randomized into treatment groups (day zero). […] Control animals received no drug. Tumor mass was determined every 7 days [(length X width^2)/2] for 28 days post staging. Relative tumor growth (Mean tumor mass on days 7, 14, 21, and 28 divided by the mean tumor mass on day zero) is determined for each treatment group.

[11] = SK-BR-3, 48 h, read-out: IC50 SKBR3, cell number, Sulforhodamine B, 48 hours exposure
[12] = read-out: IC50 A431, cell number, Sulforhodamine B, 48 hours exposure
[13] = read-out: IC50 SW620, cell number, Sulforhodamine B, 48 hours exposure, Table 8
[14] = 80 mg/kg/dose IP on days 1,5 and 9
[15] = 80 mg/kg/dose PO on days 1 through 10

T1 sequence (P35968 834-1162 limits assumed): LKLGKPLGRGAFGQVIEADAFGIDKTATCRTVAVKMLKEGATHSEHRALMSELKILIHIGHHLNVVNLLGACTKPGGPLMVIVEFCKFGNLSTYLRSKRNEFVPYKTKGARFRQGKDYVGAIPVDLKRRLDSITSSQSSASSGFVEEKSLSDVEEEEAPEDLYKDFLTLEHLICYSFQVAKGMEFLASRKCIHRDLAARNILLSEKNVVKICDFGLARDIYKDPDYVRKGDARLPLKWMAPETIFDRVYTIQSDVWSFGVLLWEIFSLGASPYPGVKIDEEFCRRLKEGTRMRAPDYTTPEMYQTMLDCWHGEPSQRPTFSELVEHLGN
Sequence of Epithelial Cell Kinase (ECK) (P29317 24-976, species assumed): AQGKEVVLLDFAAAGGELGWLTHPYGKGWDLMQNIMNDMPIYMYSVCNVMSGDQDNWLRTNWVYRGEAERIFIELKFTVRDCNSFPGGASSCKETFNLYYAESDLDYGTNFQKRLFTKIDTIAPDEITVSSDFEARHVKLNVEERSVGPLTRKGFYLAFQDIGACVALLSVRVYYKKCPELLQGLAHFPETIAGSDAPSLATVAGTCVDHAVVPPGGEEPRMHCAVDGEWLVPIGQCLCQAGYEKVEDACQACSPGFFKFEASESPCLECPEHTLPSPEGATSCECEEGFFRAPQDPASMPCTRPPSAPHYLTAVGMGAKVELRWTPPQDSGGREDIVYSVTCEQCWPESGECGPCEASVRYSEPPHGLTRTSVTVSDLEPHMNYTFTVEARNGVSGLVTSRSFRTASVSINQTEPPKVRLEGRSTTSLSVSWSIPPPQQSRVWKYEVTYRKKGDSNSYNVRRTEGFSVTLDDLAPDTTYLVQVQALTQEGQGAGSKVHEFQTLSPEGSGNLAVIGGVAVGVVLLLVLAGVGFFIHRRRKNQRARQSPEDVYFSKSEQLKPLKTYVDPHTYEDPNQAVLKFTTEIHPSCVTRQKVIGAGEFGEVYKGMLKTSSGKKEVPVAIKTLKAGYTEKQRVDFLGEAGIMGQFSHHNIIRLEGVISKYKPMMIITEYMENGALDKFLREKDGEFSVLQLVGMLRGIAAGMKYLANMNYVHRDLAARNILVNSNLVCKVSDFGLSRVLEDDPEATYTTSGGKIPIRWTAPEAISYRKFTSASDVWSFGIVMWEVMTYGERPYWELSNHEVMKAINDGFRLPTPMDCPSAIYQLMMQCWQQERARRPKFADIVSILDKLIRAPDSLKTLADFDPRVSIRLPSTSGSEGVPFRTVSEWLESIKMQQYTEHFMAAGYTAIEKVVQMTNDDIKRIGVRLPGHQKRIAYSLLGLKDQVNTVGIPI
T2 sequence (P00533 669-1210): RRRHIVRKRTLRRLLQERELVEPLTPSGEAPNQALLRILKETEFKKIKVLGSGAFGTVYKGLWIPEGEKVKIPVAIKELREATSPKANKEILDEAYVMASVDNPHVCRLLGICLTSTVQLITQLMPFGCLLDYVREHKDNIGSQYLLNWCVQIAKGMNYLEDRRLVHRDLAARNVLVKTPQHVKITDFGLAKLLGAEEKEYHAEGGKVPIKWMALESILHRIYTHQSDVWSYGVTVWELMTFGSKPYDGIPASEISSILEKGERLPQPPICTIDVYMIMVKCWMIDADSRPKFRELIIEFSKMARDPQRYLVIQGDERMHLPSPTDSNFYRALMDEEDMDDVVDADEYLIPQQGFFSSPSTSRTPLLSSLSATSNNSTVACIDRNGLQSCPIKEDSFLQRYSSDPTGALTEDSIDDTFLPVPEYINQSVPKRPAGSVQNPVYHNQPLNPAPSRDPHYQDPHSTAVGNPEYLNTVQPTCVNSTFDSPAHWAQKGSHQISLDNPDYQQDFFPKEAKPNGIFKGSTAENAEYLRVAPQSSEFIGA

| SMILES | IC50 [1] | IC50 [2] | IC50 [5] | other results |
| --- | --- | --- | --- | --- |
| COc1ccc2c(Nc3cccc(Br)c3)c(C#N)cnc2c1 [Example 3, 4-[(3-Bromophenyl)amino]-7-methoxy-3-guinolinecarbonitrile] | > 100 µM | 28.2 µM | – | – |
| N#Cc1cnc2ccc(NC(=O)CCl)cc2c1Nc1cccc(Br)c1 [Example 19, N-[4-[(3-Bromophenyl)amino]-3-cyano-6-quinolinyl]-2-chloroacetamide] | 29 µM | 24.1 µM | – | – |
| N#Cc1cnc2cc(O)c(O)cc2c1Nc1cccc(Br)c1 [Example 39, 4-[(3-Bromophenyl)amino]-6,7-dihydroxy-3-quinolinecarbonitrile] | 40 µM | 28.1 µM | – | – |
| N#Cc1cnc2cc3c(cc2c1Nc1cccc(Br)c1)OCO3 [Example 40, 8-[(3-Bromophenyl)amino]-[1,3]-dioxolo[4,5-g]quinoline-7-carbonitrile] | > 100 µM | 27.2 µM | – | – |
| COc1cc2c(Nc3ccc(Cl)cc3F)c(C#N)cnc2cc1OCCCN1CCOCC1 [Example 81, 4-(4-Chloro-2-fluoro-phenylamino)-6-methoxy-7-(3-morpholin-4-yl-propoxy)-quinoline-3-carbonitrile] | 0.1 µM | 0.425 µM | – | – |
| N#Cc1cnc2ccc(NC(=O)C=CCN3CCOCC3)cc2c1Nc1ccc(F)c(Cl)c1 [Example 147, N-{4-[(3-Chloro-4-fluorophenyl)amino]-3-cyano-6-quinolinyl} -4-morpholino-2-butenamide] | 80 µM | 43.1 µM | – | – |
| C=CC(=O)Nc1ccc2ncc(C#N)c(Nc3ccc(F)c(F)c3)c2c1 [Example 154, N-{3-Cyano-4-[(3,4-difluorophenyl)amino]-6-quinolinyl]-2-propenamide] | 20 µM | – | > 85.6 µM | IC50 [3, 11]: 0.05 µg/mL (≈ 0.143 µM); IC50 [4]: 0.44 µg/mL (≈ 1.26 µM); IC50 [6, 12]: 0.07 µg/mL (≈ 0.2 µM); IC50 [7]: 0.15 µM; IC50 [8, 13]: 0.55 µg/mL (≈ 1.57 µM); IC50 [9]: 2.57 µg/mL (≈ 7.34 µM) |
| N#Cc1cnc2ccc(NC(=O)C=CCN3CCOCC3)cc2c1Nc1ccc(F)c(Br)c1 [Example 174, N-{4-[(3-Bromo-4-fluorophenyl)amino]-3-cyano-6-quinolinyl] -4-morpholino-2-butenamide] | 2.5 µM | 39.2 µM | – | IC50 ([8]; read-out: IC50 SW620): > 5 µg/mL |
| CN1CCN(CC#CC(=O)Nc2ccc3ncc(C#N)c(Nc4cccc(Br)c4)c3c2)CC1 [Example 190, N-[4-[(3-Bromophenyl)amino]-3-cyano-6-quinolinyl]-4-(N-methylpiperazino)-2-butynamide] | – | 39.7 µM | – | – |
| COc1cc2ncc(C#N)c(Nc3cccc(Br)c3)c2cc1NC(=O)C=CCN1CCOCC1 [Example 200, 4-Morpholin-4-yl-but-2-enoic acid [4-(3-bromo-phenylamino)-3-cyano-7-methoxy-quinolin-6-yl]-amide] | > 100 µM | 38.3 µM | – | IC50 ([8]; read-out: IC50 SW620): > 5 µg/mL |
| COc1cc2ncc(C#N)c(Nc3ccc(F)c(Br)c3)c2cc1NC(=O)C=CCN(C)C [Example 208, 4-Dimethylamino-but-2-enoic acid [4-(3-bromo-4-fluorophenylamino)-3-cyano-7-methoxy-quinolin-6-yl]-amide] | 13 µM | – | 20.1 µM | IC50 [3, 11]: 0.038 µg/mL (≈ 0.0763 µM); IC50 [6, 12]: 0.067 µg/mL (≈ 0.134 µM); %T/C Day 7 [10, 14]: 14%; %T/C Day 14 [10, 14]: 15%; %T/C Day 21 [10, 14]: 26%; %T/C Day 28 [10, 14]: 32%; S/T = No. Survivors/No. Treated [10, 14]: 5/5; %T/C Day 7 [10, 15]: 6%; %T/C Day 14 [10, 15]: 6%; %T/C Day 21 [10, 15]: 8%; %T/C Day 28 [10, 15]: 10%; S/T = No. Survivors/No. Treated [10, 15]: 5/5; IC50 [7]: 0.0015 µM; IC50 [8, 13]: 0.453 µg/mL (≈ 0.909 µM) |
| CCOc1cc2ncc(C#N)c(Nc3cccc(Br)c3)c2cc1NC(=O)C=CCN1CCOCC1 [Example 218, 4-Morpholin-4-yl-but-2-enoic acid [4-(3-bromo-phenylamino)-3-cyano-7-ethoxy-quinolin-6-yl]-amide] | – | – | > 55.9 µM | IC50 [3, 11]: 0.029 µg/mL (≈ 0.0541 µM); IC50 SKBR3 ([3]; cell number, Sulforhodamine B, 48 hours exposure): 0.047 µg/mL (≈ 0.0876 µM); IC50 [8, 13]: 1.85 µg/mL (≈ 3.46 µM); IC50 SW620 ([8]; cell number, Sulforhodamine B, 48 hours exposure, Table 8): 1.235 µg/mL (≈ 2.3 µM) |
| COc1cc2ncc(C#N)c(Nc3ccc(C)c(O)c3)c2cc1OC [Example 229, 4-(3-Hydroxy-4-methyl-phenylamino)-6,7-dimethoxy-quinoline-3-carbonitrile] | < 1 µM | – | 0.596 µM | IC50 ([3]; SK-BR-3, cell number, Sulforhodamine B, 48 hours exposure, read-out: IC50 SKBR3): > 5 µg/mL; IC50 ([6]; cell number, Sulforhodamine B, 48 hours exposure, read-out: IC50 A431): 0.469 µg/mL (≈ 1.4 µM); IC50 ([8]; cell number, Sulforhodamine B, 48 hours exposure, Table 8, read-out: IC50 SW620): > 5 µg/mL |
| COc1ccc(OC)c2c(Nc3cc(O)c(Cl)cc3F)c(C#N)cnc12 [Example 243, 4-(4-Chloro-2-fluoro-5-hydroxy-phenylamino)-5,8-dimethoxy-quinoline-3-carbonitrile] | > 100 µM | – | > 80.3 µM | – |
| COc1cc2ncc(C#N)c(Nc3ccc(O)c(Cl)c3)c2cc1OC [Example 249, 4-(3-Chloro-4-hydroxy-phenylamino)-6,7-dimethoxy-quinoline-3-carbonitrile] | 15 µM | – | > 28.1 µM | – |
| COc1cc2ncc(C#N)c(Nc3ccccc3SC)c2cc1OC [Example 250, 6,7-Dimethoxy-4-(2-methylsulfanyl-phenylamino)-quinoline-3-carbonitrile] | 10 µM | – | > 28.5 µM | – |
| COc1cccc2c(Nc3ccc(Cl)cc3F)c(C#N)cnc12 [Example 275, 4-(4-Chloro-2-fluoro-phenylamino)-8-methoxy-quinoline-3-carbonitrile] | > 100 µM | – | > 91.5 µM | – |
| COc1cccc2c(Nc3cccc(N(C)C)c3)c(C#N)cnc12 [Example 277, 4-(3-Dimethylamino-phenylamino)-8-methoxy-quinoline-3-carbonitrile] | > 100 µM | – | > 94.2 µM | – |
| COc1cccc2c(Nc3ccc(Br)c(O)c3)c(C#N)cnc12 [Example 278, 4-(4-Bromo-3-hydroxy-phenylamino)-8-methoxy-quinoline-3-carbonitrile] | > 100 µM | – | > 81 µM | – |
| COc1ccc(Nc2c(C#N)cnc3c(OC)cccc23)cc1O [Example 279, 4-(3-Hydroxy-4-methoxy-phenylamino)-8-methoxy-quinoline-3-carbonitrile] | > 100 µM | – | > 93.4 µM | – |
| COc1cccc2c(Nc3c(F)cc(F)cc3F)c(C#N)cnc12 [Example 280, 8-Methoxy-4-(2,4,6-trifluoro-phenylamino)-quinoline-3-carbonitrile] | > 100 µM | – | > 91.1 µM | – |
| COc1ccc2ncc(C#N)c(Nc3ccc(Cl)cc3F)c2c1 [Example 283, 4-(4-Chloro-2-fluoro-phenylamino)-6-methoxy-quinoline-3-carbonitrile] | > 100 µM | 9.15 µM | – | – |
| COc1ccc2ncc(C#N)c(Nc3ccc(C)c(O)c3)c2c1 [Example 284, 4-(3-Hydroxy-4-methyl-phenylamino)-6-methoxy-quinoline-3-carbonitrile] | 4 µM | 32.8 µM | – | – |
| COc1cc2ncc(C#N)c(Nc3cc(Cl)ccc3O)c2cc1OC [Example 290, 4-(5-Chloro-2-hydroxy-phenylamino)-6,7-dimethoxy-quinoline-3-carbonitrile] | 3 µM | – | 28.1 µM | – |
| COc1cc2ncc(C#N)c(Nc3cc(Br)c(O)c(Br)c3)c2cc1OC [Example 291, 4-(3,5-Dibromo-4-hydroxy-phenylamino)-6,7-dimethoxy-quinoline-3-carbonitrile] | > 100 µM | – | 20.9 µM | – |
| COc1cc2ncc(C#N)c(Nc3cc(C)ccc3O)c2cc1OC [Example 295, 4-(2-Hydroxy-5-methyl-phenylamino)-6,7-dimethoxy-quinoline-3-carbonitrile] | 50 µM | – | 29.8 µM | – |
